Reference: patent publication US8461389B2, “Psycho-pharmaceuticals” (University College Dublin, National University of Ireland, …, priority 2008, dated 2013)

Assays:
rat pyloric muscle = experiment: Electrical field stimulation (EFS)-mediated relaxation of isolated pyloric muscle; conditions: 25 μM Captodiamine; 10 min treatment, 10 μM-100 μM tested
Method: Inhibition of pyloric relaxation by administration of captodiamine was performed as described in Kashyap P., Micci M., Pasricha S., Pasricha P., The D2/D3 Agonist PD 128907 (R-(+)-trans-3,4a,10b-Tetrahydro-4-Propyl-2H,5H-[1]Benzopyrano[4,3-b]-1,4-Oxazin-9-ol) Inhibits Stimulated Pyloric Relaxation and Spontaneous Gastric Emptying, 2007, Digestive Diseases and Sciences.
Male Wistar rats were killed by cervical dislocation and decapitation. The stomach was removed and placed in oxygenated Krebs buffer (118 mM NaCl, 4.7 mM KCl, 1.2 mM KH2PO4, 1.2 mM MgSO4, 4.2 mM NaHCO3, 2 mM CaCl2, 10 mM glucose, 200 μM sulphinpyrazone and 10 mM Hepes, pH 7.4). […] The tissue was cut longitudinally along the mesenteric border and trimmed to 2 mm in width. At one end, the tissue was mounted onto an L-shaped electrode and placed into a 25 ml chamber containing Krebs buffer, maintained at 37° C. and continuously bubbled with 95% O2/5% CO2. The other end of the tissue was attached to an isometric force transducer using string sutured to tissue. Tension was monitored, recorded and analyzed by a digital recording device (PowerLab and Chart 5, ADInstruments). […] Spontaneous contraction of the pyloric strips were observed and recorded following the equilibration phase. […] The weight of the tissue was measured at the end of each session. […]

C57B16 mice = experiment: Forced swim test; format: in vivo; conditions: 3 and 5 mg/kg i.p.; FIGS. 10A and 10B
Method: • 1. Fill a 12 cm diameter glass cylinder to 10 cm with 22° C. water. • 2. Place two animals simultaneously in individual side-by-side cylinders separated by an opaque screen. • 3. Place mice in the cylinders for 6 minutes. • 4. Observe the behaviour of the mice for the last 4-minutes of the 6-minute experimental session. • 5. Sessions are videotaped and scored blind, Immobility is scored by summing the time spent immobile; movements necessary to maintain the animals head above water were not scored with data from treated groups compared with data from the control group using nonpaired Student's t tests (two tailed). • 6. Animals are dried with paper towels and heat lamps. FST in Rats: Habituation Session (Day 1) • 1. On Day 1, […] prior to testing, place the animals in the experimental room 60 min before the beginning of the habituation session. Randomly assign animals to a drug treatment, but give all animals within a cage the same treatment. Make food and water available throughout the experiment. • 2. Weigh two animals individually, then place one rat in each of the two cylinders (20 cm in diameter×40 cm high) containing water (25° C.) for 15 min (habituation session). No scoring of immobility is performed during the habituation session. […]
Values are expressed as mean±S.E.M (n=8). Statistical difference was determined using a Mann Whitney non-parametric U-test. […]

SMILES: CCCCSc1ccc(C(SCCN(C)C)c2ccccc2)cc1 (centres unmarked) [Captodiamine, 2-[(4-butylsulfanylphenyl)-phenyl-methyl]sulfanyl-N,N-dimethyl-ethanamin]
- effect on EFS-mediated relaxation of the rat pyloric muscle (rat pyloric muscle): attenuation of the EFS-mediatated relaxation
- time to immobility in the forced swim test (C57B16 mice): significant increase on time to immobility
